Assay results from US20250115581A1, “SUBSTITUTED PIPERIDINES AS CK1A DEGRADERS” (Monte Rosa Therapeutics, Inc., priority 2022, published 2025).

Experiments:
CRBN/DDB1 = CRBN/DDB1 (Homo sapiens, UniProt Q96SW2); assay: HTRF binding assay (displacement of Cy5-thalidomide probe from CRBN/DDB1); details: CRBN/DDB1 2.5 nM, Cy5-Thalidomide 100 nM, 30 min; geometric mean; read-out: HTRF_Thali_Disp_DR_geo_IC50
Excerpt: Binding of test compounds to CRBN/DDB1 was monitored in an HTRF assay using 1-[5-({2-[2-(2-{[2-(2,6-dioxopiperidin-3-yl)-1,3-dioxo-2,3-dihydro-1H-isoindol-4-yl]oxy}acetamido)ethoxy]ethyl}carbamoyl)pentyl]-3,3-dimethyl-2-[(1E,3E)-5-[(2E)-1,3,3-trimethyl-5-sulfo-2,3-dihydro-1H-indol-2-ylidene]penta-1,3-dien-1-yl]-3H-indol-1-ium-5-sulfonate as a fluorescent probe. In this assay, compounds displace the fluorescently labeled thalidomide-based probe bound to CRBN and fluorescence is monitored with increasing compound concentration. Assays were conducted in Greiner white 384 well HiBase plates (Cat. No 784075-25) in 10 μL total volume. A one pot detection solution of CRBN/DDB1 (2.5 nM), anti-His Terbium Cryptate Gold (1×, PerkinElmer Cat. #: 61HI2TLB), and Cy5-Thalidomide (100 nM, Tenova Cat.: T52461) was prepared in 20 mM HEPES, 20 mM NaCl, 0.2 mM TCEP, 0.2 mM EDTA, and 0.005% Tween20 was dispensed to each assay plate. Test compounds were stored in dry, ambient temperatures at 10 mM. A 10-point, 1:3 dilution series was prepared from 10 mM stock concentrations in Echo-compatible LDV plates. 10 nL of each compound dilution series was dispensed into assays wells using an Echo 650 (Labcyte inc. USA). 10 nL of 10 mM lenalidomide (Selleckchem Cat no. S1029) was transferred into the active-control wells for the assay and 10 nL of DMSO was transferred into the negative control wells. The assay was then allowed to incubate for 30 min at ambient temperature after transferring the test compounds. Plate measurements were taken on a Pherastar FSX (BMG Labtech, Germany) using the HTRF Red filter (Ex. 337 nm, em1: 620 nm, em2: 665 nm) (Flashes: 50, Integration time: 60-400 μs, Z-height: 10 mm, Ratio-multiplier: 10,000). Analysis, HTRF ratio and IC50 values were derived using KNIME analytics (KNIME Zurich) transformation and fitting within Collaborative Drug Discovery (Collaborative Drug Discovery USA) using a 4-parameter logistic fit. HTRF ratio calculation was performed using the following formula: […]
where em665 nm represents the measured emission at 665 nm upon excitation at 337 nm and em620 nm the measured emission at 620 nm upon excitation at 337 nm. The 4 parameter logistic fitting model was performed using the following formula: […]
where Y represents the HTRF ratio response (as defined previously), X the compound concentration in μM, Ymin the minimum response plateau, Ymax the maximum response plateau, IC50 the concentration of […] that gives a response half way between Ymin and Ymax and HillSlope the steepness of the family of curves. No fitting model constraints was applied on Ymin, or Ymax whilst IC50>0 and −0.5>HillSlope>−3 Cheng-Prusoff transformation
Ki values were derived from the geometric mean of the IC50 values using the Cheng-Prusoff transformation:
where [L] represents the concentration of fluorescent probe in […], Kd the affinity (binding constant) of the fluorescent probe in units of μM and IC50 the concentration of agonist that gives a response halfway between Ymin and Ymax (as described in 1.2.1)
Analysis and IC50 values were derived using KNIME analytics (KNIME, Zurich) transformation and fitting within Collaborative Drug Discovery (Collaborative Drug Discovery, USA) as described in 1.2.1. Ki values were derived from the geometric mean of the IC50 values using the Cheng-Prusoff transformation as described in 2.2.2. Data was visualized in GraphPad Prism 8.1.2 (GraphPad, USA) and reported as mean and standard deviation. Microsoft Office Excel 2012 (Redmond, WA) was used for calculation of mean and standard deviation.
IC50 data are reported in Table 3 for compounds in Table 1. In Table 3 below, According to the code, A represents a IC50 value of ≤0.1 μM, B represents a IC50 value >0.1 μM and ≤1 μM, C represents an IC50 value >1 μM.

CK1α = biological target: T1, CK1α (Homo sapiens, UniProt P48729+Q96SW2); assay: CK1α NanoBit Assay (HiBiT-tagged CSNK1A1 in HEK293 cells, luminescence); assay type: cell-based; details: 24 h
T1 construct: HEK293 clonal lines with CRISPR KI HiBiT tag on CSNK1A1; host or cells: HEK293 clonal line, CRISPR knock-in HiBiT at the CSNK1A1 locus, stably expressing LgBiT
Procedure: HEK293 clonal lines with CRISPR KI HiBiT tag on CSNK1A1 and stably expressing LgBiT protein were obtained from Promega (Madison, WI). Cells were plated at 5000 cells per well using Multiflo (BioTek) in 384-well white solid bottom plates (Corning, 3570BC) in 25 μl volume in DMEM media (DMEM, high glucose, HEPES, no phenol red (ThermoFisher Scientific, 21063029)) containing 10% FBS (Corning, 35-075-CV), 1% Penicillin/Streptomycin ((ThermoFisher Scientific, 15140-122), and 0.2% Endurazine (Nano-Glo Endurazine Live Cell Substrate (Promega, N2571)). Cells were incubated for 16 hours at 37° C., 5% CO2. Depending on experiment 25 or 75 nL of a compound at 10 mM were added into the plate using an Echo® 650 liquid handler (Labcyte) to achieve final concentration of 10 or 30 μM in wells. Cells were incubated at 37° C., 5% CO2 for 24 hours and then signal was read on a Pherastar FSX using “LUM plus” optic module.
Data analysis was performed in Scinamic (Scinamic, Cambridge, MA). Luminescence response (R) was calculated by the formula: response=100*(S−N)/(P−N) where S is the signal of the well, N and P the mean negative and positive control values respectively of the same plate. The luminescence response was then fitted in Scinamic using a 3-parameter agonist logistic fit (hillslope=1, EC50>0, top/bottom unconstrained).
DC50 data are reported in Table 2 for compounds in Table 1. In Table 2 below, According to the code, A represents a DC50 value of ≤0.1 μM, B represents a DC50 value >0.1 μM and ≤1 μM, C represents an DC50 value >1 μM.

T1 sequence (P48729 whole entry): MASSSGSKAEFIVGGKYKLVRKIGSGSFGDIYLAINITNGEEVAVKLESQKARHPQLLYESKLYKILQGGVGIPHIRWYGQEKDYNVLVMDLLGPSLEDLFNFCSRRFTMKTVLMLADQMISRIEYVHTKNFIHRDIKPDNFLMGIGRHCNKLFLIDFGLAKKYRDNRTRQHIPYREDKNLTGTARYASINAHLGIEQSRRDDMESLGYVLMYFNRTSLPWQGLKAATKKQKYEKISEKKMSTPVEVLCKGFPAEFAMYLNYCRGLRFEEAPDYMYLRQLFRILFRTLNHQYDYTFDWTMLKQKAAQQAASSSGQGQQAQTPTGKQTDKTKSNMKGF
T1 sequence (Q96SW2 whole entry): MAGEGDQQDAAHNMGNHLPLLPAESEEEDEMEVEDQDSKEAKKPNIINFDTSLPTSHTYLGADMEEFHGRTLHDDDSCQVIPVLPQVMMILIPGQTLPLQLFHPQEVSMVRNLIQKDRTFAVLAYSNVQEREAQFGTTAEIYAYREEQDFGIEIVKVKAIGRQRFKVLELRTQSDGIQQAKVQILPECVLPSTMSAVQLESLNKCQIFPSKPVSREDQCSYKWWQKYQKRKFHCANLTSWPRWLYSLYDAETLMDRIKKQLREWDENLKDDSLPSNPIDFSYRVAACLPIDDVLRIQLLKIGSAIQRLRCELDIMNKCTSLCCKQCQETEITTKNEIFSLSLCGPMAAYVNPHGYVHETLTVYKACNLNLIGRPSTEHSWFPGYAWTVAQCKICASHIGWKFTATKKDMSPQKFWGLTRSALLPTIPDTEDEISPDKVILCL
T1 sequence (Q16531 whole entry partner): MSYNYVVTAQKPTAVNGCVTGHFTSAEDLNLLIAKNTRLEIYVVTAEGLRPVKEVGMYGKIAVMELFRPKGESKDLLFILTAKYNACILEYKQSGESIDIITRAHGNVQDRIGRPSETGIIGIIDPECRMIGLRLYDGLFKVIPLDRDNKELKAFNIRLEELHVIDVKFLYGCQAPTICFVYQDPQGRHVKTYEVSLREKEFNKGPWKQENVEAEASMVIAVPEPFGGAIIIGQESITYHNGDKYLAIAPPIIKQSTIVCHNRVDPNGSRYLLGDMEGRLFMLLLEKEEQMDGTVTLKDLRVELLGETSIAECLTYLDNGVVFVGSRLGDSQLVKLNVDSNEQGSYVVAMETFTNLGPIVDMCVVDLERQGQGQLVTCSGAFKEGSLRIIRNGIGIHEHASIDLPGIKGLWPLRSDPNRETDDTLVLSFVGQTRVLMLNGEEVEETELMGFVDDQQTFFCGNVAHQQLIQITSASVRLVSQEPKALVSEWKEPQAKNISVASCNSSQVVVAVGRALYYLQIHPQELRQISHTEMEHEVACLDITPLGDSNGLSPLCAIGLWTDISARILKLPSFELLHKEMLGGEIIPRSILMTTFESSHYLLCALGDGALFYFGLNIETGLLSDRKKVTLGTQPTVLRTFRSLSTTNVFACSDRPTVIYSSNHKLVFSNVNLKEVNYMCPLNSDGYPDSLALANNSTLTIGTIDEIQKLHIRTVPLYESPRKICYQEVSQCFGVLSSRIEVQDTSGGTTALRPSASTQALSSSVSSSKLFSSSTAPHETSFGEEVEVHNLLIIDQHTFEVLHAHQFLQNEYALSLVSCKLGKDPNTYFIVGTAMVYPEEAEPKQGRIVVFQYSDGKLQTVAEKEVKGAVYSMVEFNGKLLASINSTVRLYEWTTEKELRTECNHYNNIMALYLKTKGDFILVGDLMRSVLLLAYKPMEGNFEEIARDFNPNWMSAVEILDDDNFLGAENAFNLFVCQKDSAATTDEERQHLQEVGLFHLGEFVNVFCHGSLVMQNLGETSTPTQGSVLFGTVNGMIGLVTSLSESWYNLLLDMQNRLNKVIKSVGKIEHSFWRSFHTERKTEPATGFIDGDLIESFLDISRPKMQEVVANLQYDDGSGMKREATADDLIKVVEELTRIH
Sequence of CRBN/DDB1 (Q96SW2 whole entry): as the sequence (Q96SW2 whole entry) above
Sequence of CRBN/DDB1 (Q16531 whole entry partner): as the sequence (Q16531 whole entry partner) above

| Structure (SMILES) | IC50 (CRBN/DDB1) | DC50 (CK1α) |
| --- | --- | --- |
| O=C1CCC(N2Cc3cc(N4CCN(c5ccc(C6CCOC6)cc5)C4=O)ccc3C2=O)C(=O)N1 (stereo not shown) [Compound 144, 3-(1-oxo-5-(2-oxo-3-(4-(tetrahydrofuran-3-yl)phenyl)imidazolidin-1-yl)isoindolin-2-yl)piperidine-2,6-dione] | 100 to 1000 nM | ≤ 0.1 µM |
| Cc1ccc(N2C(=O)N(c3ccc4c(c3)CN(C3CCC(=O)NC3=O)C4=O)C[C@H]2C)cn1 (stereo partly drawn) [Compound 151, 3-(5-((R)-4-methyl-3-(6-methylpyridin-3-yl)-2-oxoimidazolidin-1-yl)-1-oxoisoindolin-2-yl)piperidine-2,6-dione] | 100 to 1000 nM | ≤ 0.1 µM |
| CC1(c2ccc(N3CCN(c4ccc5c(c4)CN(C4CCC(=O)NC4=O)C5=O)C3=O)cc2)CC1 (stereo not shown) [Compound 135, 3-(5-(3-(4-(1-methylcyclopropyl)phenyl)-2-oxoimidazolidin-1-yl)-1-oxoisoindolin-2-yl)piperidine-2,6-dione] | > 1000 nM | ≤ 0.1 µM |
| O=C1CCC(N2Cc3cc(N4CCN(c5cccc6nc[nH]c56)C4=O)ccc3C2=O)C(=O)N1 (stereo not shown) [Compound 175, 3-(5-(3-(1H-benzo[d]imidazol-7-yl)-2-oxoimidazolidin-1-yl)-1-oxoisoindolin-2-yl) piperidine-2,6-dione] | > 1000 nM | > 1 µM |
| C[C@@H]1CN(c2ccc3c(c2)CN(C2CCC(=O)NC2=O)C3=O)C(=O)N1c1cnccn1 (stereo partly drawn) [Compound 132, 3-(5-((R)-4-methyl-2-oxo-3-(pyrazin-2-yl)imidazolidin-1-yl)-1-oxoisoindolin-2-yl)piperidine-2,6-dione] | 100 to 1000 nM | ≤ 0.1 µM |
| C[C@@H]1CN(c2ccc3c(c2)CN(C2CCC(=O)NC2=O)C3=O)C(=O)N1C1CCC1 (stereo partly drawn) [Compound 142, 3-(5-((R)-3-cyclobutyl-4-methyl-2-oxoimidazolidin-1-yl)-1-oxoisoindolin-2-yl)piperidine-2,6-dione] | 100 to 1000 nM | ≤ 0.1 µM |
| N#Cc1cccc(N2CCN(c3ccc4c(c3)CN(C3CCC(=O)NC3=O)C4=O)C2=O)c1 (stereo not shown) [Compound 148, 3-(3-(2-(2,6-dioxopiperidin-3-yl)-1-oxoisoindolin-5-yl)-2-oxoimidazolidin-1-yl)benzonitrile] |  | ≤ 0.1 µM |
| COCc1cccc(N2CCN(c3ccc4c(c3)CN(C3CCC(=O)NC3=O)C4=O)C2=O)c1 (stereo not shown) [Compound 136, 3-(5-(3-(3-(methoxymethyl)phenyl)-2-oxoimidazolidin-1-yl)-1-oxoisoindolin-2-yl)piperidine-2,6-dione] | 100 to 1000 nM | ≤ 0.1 µM |
| O=C1CCC(N2Cc3cc(N4C[C@@H](C(F)(F)F)N(c5ccccc5)C4=O)ccc3C2=O)C(=O)N1 (stereo partly drawn) [Compound 106, 3-(1-oxo-5-((S)-2-oxo-3-phenyl-4-(trifluoromethyl)imidazolidin-1-yl)isoindolin-2-yl)piperidine-2,6-dione] | 100 to 1000 nM | 0.1 to 1 µM |
| CC(c1ccccc1)N1CCN(c2ccc3c(c2)CN(C2CCC(=O)NC2=O)C3=O)C1=O (stereo not shown) [Compound 154, 3-(1-oxo-5-(2-oxo-3-(1-phenylethyl)imidazolidin-1-yl)isoindolin-2-yl)piperidine-2,6-dione] | 100 to 1000 nM | 0.1 to 1 µM |
| O=C1CCC(N2Cc3cc(N4CCN(c5ccc6[nH]cnc6c5)C4=O)ccc3C2=O)C(=O)N1 (stereo not shown) [Compound 170, 3-(5-(3-(1H-benzo[d]imidazol-5-yl)-2-oxoimidazolidin-1-yl)-1-oxoisoindolin-2-yl) piperidine-2,6-dione] | ≤ 100 nM | 0.1 to 1 µM |
| CO[C@@H](C)c1cccc(N2CCN(c3ccc4c(c3)CN(C3CCC(=O)NC3=O)C4=O)C2=O)c1 (stereo partly drawn) [Compound 139, 3-(5-(3-(3-((S)-1-methoxyethyl)phenyl)-2-oxoimidazolidin-1-yl)-1-oxoisoindolin-2-yl)piperidine-2,6-dione] | 100 to 1000 nM | ≤ 0.1 µM |
| COCc1ccc(N2C(=O)N(c3ccc4c(c3)CN(C3CCC(=O)NC3=O)C4=O)C[C@H]2C)cc1 (stereo partly drawn) [Compound 134, 3-(5-((R)-3-(4-(methoxymethyl)phenyl)-4-methyl-2-oxoimidazolidin-1-yl)-1-oxoisoindolin-2-yl)piperidine-2,6-dione] | 100 to 1000 nM | ≤ 0.1 µM |
| CN1Cc2cccc(N3CCN(c4ccc5c(c4)CN(C4CCC(=O)NC4=O)C5=O)C3=O)c2C1 (stereo not shown) [Compound 172, 3-(5-(3-(2-methylisoindolin-4-yl)-2-oxoimidazolidin-1-yl)-1-oxoisoindolin-2-yl)piperidine-2,6-dione] | ≤ 100 nM | > 1 µM |
| COCc1ccccc1N1CCN(c2ccc3c(c2)CN(C2CCC(=O)NC2=O)C3=O)C1=O (stereo not shown) [Compound 168, 3-(5-(3-(2-(methoxymethyl)phenyl)-2-oxoimidazolidin-1-yl)-1-oxoisoindolin-2-yl)piperidine-2,6-dione] | 100 to 1000 nM | 0.1 to 1 µM |
| CC1CN(c2ccccc2)C(=O)N1c1ccc2c(c1)CN(C1CCC(=O)NC1=O)C2=O (stereo not shown) [Compound 117, 3-(5-(5-methyl-2-oxo-3-phenylimidazolidin-1-yl)-1-oxoisoindolin-2-yl)piperidine-2,6-dione] | 100 to 1000 nM | 0.1 to 1 µM |
| Cc1cc(N2CCN(c3ccc4c(c3)CN(C3CCC(=O)NC3=O)C4=O)C2=O)ccn1 (stereo not shown) [Compound 103, 3-(5-(3-(2-methylpyridin-4-yl)-2-oxoimidazolidin-1-yl)-1-oxoisoindolin-2-yl)piperidine-2,6-dione] |  | > 1 µM |
| Cc1ccc(N2CCN(c3ccc4c(c3)CN(C3CCC(=O)NC3=O)C4=O)C2=O)nc1 (stereo not shown) [Compound 141, 3-(5-(3-(5-methylpyridin-2-yl)-2-oxoimidazolidin-1-yl)-1-oxoisoindolin-2-yl)piperidine-2,6-dione] |  | ≤ 0.1 µM |
| O=C1CCC(N2Cc3cc(N4CCN(c5ccc(C6(C(F)(F)F)CC6)cc5)C4=O)ccc3C2=O)C(=O)N1 (stereo not shown) [Compound 147, 3-(1-oxo-5-(2-oxo-3-(4-(1-(trifluoromethyl)cyclopropyl)phenyl)imidazolidin-1-yl)isoindolin-2-yl)piperidine-2,6-dione] |  | ≤ 0.1 µM |
